# Measurements from article PMC8781629, “Identification of an Amylomaltase from the Halophilic Archaeon Haloquadratum walsbyi by Functional Metagenomics: Structural and Functional Insights” (Life, 2022).
# Biological target: T1, Hw-A (H. walsbyi amylomaltase) (Haloquadratum walsbyi, UniProt Q18H55)
# T1 construct: gene malQ; full length plus 21 vector residues incl; N-terminal His6 tag (p15TV-L), E. coli Origami (DE3), about 67 kDa, tag not reported cut
# Assay: starch transglycosylation, decrease of starch-iodine absorbance at […] nm
# Type: biochemical
# Settings: acceptor substrate (best of those tested), 0.05%; donor 0.15% starch; 50 mM sodium phosphate pH 7, 1 M NaCl, 40 °C, 1 h
# T1 sequence (Q18H55 entry or part of it): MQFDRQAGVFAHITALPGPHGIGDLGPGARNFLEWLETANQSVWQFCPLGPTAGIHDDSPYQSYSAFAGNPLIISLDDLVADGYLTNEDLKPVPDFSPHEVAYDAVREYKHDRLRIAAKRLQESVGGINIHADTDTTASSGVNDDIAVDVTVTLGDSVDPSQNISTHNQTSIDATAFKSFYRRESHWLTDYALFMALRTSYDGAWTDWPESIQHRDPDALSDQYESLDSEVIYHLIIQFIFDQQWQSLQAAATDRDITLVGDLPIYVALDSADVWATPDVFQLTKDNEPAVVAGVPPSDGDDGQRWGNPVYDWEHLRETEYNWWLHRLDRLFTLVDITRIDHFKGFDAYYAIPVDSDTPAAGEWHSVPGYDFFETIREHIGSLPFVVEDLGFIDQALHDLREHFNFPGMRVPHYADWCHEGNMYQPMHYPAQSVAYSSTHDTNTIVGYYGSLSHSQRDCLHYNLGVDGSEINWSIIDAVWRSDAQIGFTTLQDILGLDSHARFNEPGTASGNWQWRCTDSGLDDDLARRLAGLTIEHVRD
smiles,measurement,value
OC[C@H]1O[C@H](O[C@H]2[C@H](O)[C@@H](O)[C@@H](O[C@H]3[C@H](O)[C@@H](O)C(O)O[C@@H]3CO)O[C@@H]2CO)[C@H](O)[C@@H](O)[C@@H]1O (stereo partly shown) [maltotriose],"starch transglycosylation, decrease of starch-iodine absorbance at 620 nm",The assays indicated maltotriose as the best acceptor for starch degradation
